Legend:
Type in all cases: in vivo
[1] = tested on: Kochia (Kochia scoparia); assay: Test A preemergence; details: for Kochia plant response rating (0 to 100 scale, 0 is no effect, 100 is complete control): visual injury approx. 10 d
Procedure, shortened: (§1)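 Compounds were formulated in a non-phytotoxic solvent mixture with surfactant and applied as a preemergence directed soil spray after seeding, or sprayed postemergence over plants 2 to 10 cm tall at the one- to two-leaf stage. Evaluation after about 10 d compared treated with untreated controls, using a scale from 0 (no effect) to 100 (complete control).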

[2] = tested on: barnyardgrass (Echinochloa crus-galli); assay: Test A preemergence; details: for Barnyardgrass plant response rating (0 to 100 scale, 0 is no effect, 100 is complete control): visual injury approx. 10 d
Procedure, shortened: as §1

[3] = tested on: giant foxtail (Setaria faberii); assay: Test A preemergence; details: for Foxtail, Giant plant response rating (0 to 100 scale, 0 is no effect, 100 is complete control): visual injury approx. 10 d
Procedure, shortened: as §1

[4] = tested on: pigweed (Amaranthus retroflexus); assay: Test A preemergence; details: for Pigweed plant response rating (0 to 100 scale, 0 is no effect, 100 is complete control): visual injury approx. 10 d
[5] = tested on: ragweed (common ragweed, Ambrosia elatior); assay: Test A preemergence; details: for Ragweed plant response rating (0 to 100 scale, 0 is no effect, 100 is complete control): visual injury approx. 10 d
Procedure, shortened: as §1

[6] = tested on: ryegrass, Italian (Italian ryegrass, Lolium multiflorum); assay: Test A preemergence; details: for Ryegrass, Italian plant response rating (0 to 100 scale, 0 is no effect, 100 is complete control): visual injury approx. 10 d
Procedure, shortened: as §1

[7] = tested on: Galium (catchweed bedstraw, Galium aparine); assay: Test A postemergence
Procedure, shortened: as §1

[8] = tested on: Kochia (Kochia scoparia); assay: Test A postemergence
Procedure, shortened: as §1

[9] = tested on: barnyardgrass (Echinochloa crus-galli); assay: Test A postemergence
Procedure, shortened: as §1

[10] = tested on: blackgrass (Alopecurus myosuroides); assay: Test A postemergence
Procedure, shortened: as §1

[11] = tested on: corn (Zea mays); assay: Test A postemergence
Procedure, shortened: as §1

[12] = tested on: giant foxtail (Setaria faberii); assay: Test A postemergence
Procedure, shortened: as §1

[13] = tested on: pigweed (Amaranthus retroflexus); assay: Test A postemergence
Procedure, shortened: as §1

[14] = tested on: ragweed (common ragweed, Ambrosia elatior); assay: Test A postemergence
Procedure, shortened: as §1

[15] = tested on: ryegrass, Italian (Italian ryegrass, Lolium multiflorum); assay: Test A postemergence
Procedure, shortened: as §1

[16] = tested on: wheat (Triticum aestivum); assay: Test A postemergence
Procedure, shortened: as §1

[17] = tested on: barnyardgrass (Echinochloa crus-galli); assay: Test B flooded paddy test; details: Flood, 250 g ai/ha; 0 to 100 scale where 0 is no effect and 100 is complete control; 13 to 15 d
Procedure, shortened: (§2)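 Evaluation by eye, against controls, occurred 13–15 d post-treatment in a greenhouse, using a 0 (no effect) to 100 (complete control) scale. Application was into the paddy water, 3 cm deep over the soil, on 2-leaf plants.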

[18] = tested on: ducksalad (Heteranthera limosa); assay: Test B flooded paddy test; details: Flood, 250 g ai/ha; 0 to 100 scale where 0 is no effect and 100 is complete control; 13 to 15 d
Procedure, shortened: as §2

[19] = tested on: rice (Oryra sativa); assay: Test B flooded paddy test; details: Flood, 250 g ai/ha; 0 to 100 scale where 0 is no effect and 100 is complete control; 13 to 15 d
Procedure, shortened: as §2

[20] = tested on: sedge, umbrella (small-flower umbrella sedge, Cyperus difformis); assay: Test B flooded paddy test; details: Flood, 250 g ai/ha; 0 to 100 scale where 0 is no effect and 100 is complete control; 13 to 15 d
Procedure, shortened: as §2

[21] = 125 g ai/ha, Preemergence, visual injury after approximately 10 d, 0 to 100 scale where 0 is no effect and 100 is complete control
[22] = 125 g ai/ha, postemergence, visual injury rating on 0 to 100 scale (0 no effect, 100 complete control), approx. 10 d
[23] = Postemergence, 500 g ai/ha, 0 to 100 scale where 0 is no effect and 100 is complete control
[24] = 125 g ai/ha, postemergence, visual rating after approx. 10 d, 0 to 100 scale (0 no effect, 100 complete control)
[25] = 500 g ai/ha, preemergence, 0 to 100 scale, 0 = no effect, 100 = complete control

Compound	Plant response rating, Kochia [1, 21]	Plant response rating, Barnyardgrass [2, 21]	Plant response rating, Foxtail, Giant [3, 21]	Plant response rating, Pigweed [4, 21]	Plant response rating, Ragweed [5, 21]	Plant response rating, Ryegrass, Italian [6, 21]	Plant response rating, Galium [7, 23]	Plant response rating, Kochia [8, 23]	Plant response rating, Barnyardgrass [9, 23]	Plant response rating, Blackgrass [10, 23]	Plant response rating, Corn [11, 23]	Plant response rating, Foxtail, Giant [12, 23]	Plant response rating, Pigweed [13, 23]	Plant response rating, Ragweed [14, 23]	Plant response rating, Ryegrass, Italian [15, 23]	Plant response rating, Wheat [16, 23]	Plant response rating, Barnyardgrass [17]	Plant response rating, Ducksalad [18]	Plant response rating, Rice [19]	Plant response rating, Sedge, Umbrella [20]	other results
CN1CC(c2cccc(OC(F)F)c2)C(C(=O)Nc2ccccc2S(C)(=O)=O)C1=O (stereo not drawn) [Compound 523]	0	90	90	80	60	40	60	50	90	70	80	90	60	50	70	70	50	50	0	0	Kochia plant response rating (0 to 100 scale, 0 is no effect, 100 is complete control) ([1]; Preemergence, 500 g ai/ha): 80; Barnyardgrass plant response rating (0 to 100 scale, 0 is no effect, 100 is complete control) ([2]; Preemergence, 500 g ai/ha): 90; Foxtail, Giant plant response rating (0 to 100 scale, 0 is no effect, 100 is complete control) ([3]; Preemergence, 500 g ai/ha): 90; Pigweed plant response rating (0 to 100 scale, 0 is no effect, 100 is complete control) ([4]; Preemergence, 500 g ai/ha): 90; Ragweed plant response rating (0 to 100 scale, 0 is no effect, 100 is complete control) ([5]; Preemergence, 500 g ai/ha): 80; Ryegrass, Italian plant response rating (0 to 100 scale, 0 is no effect, 100 is complete control) ([6]; Preemergence, 500 g ai/ha): 90; Galium plant response rating [7, 22]: 50; Kochia plant response rating [8, 22]: 20; Barnyardgrass plant response rating [9, 22]: 90; Blackgrass plant response rating [10, 22]: 50; Corn plant response rating [11, 22]: 20; Foxtail, Giant plant response rating [12, 22]: 80; Pigweed plant response rating [13, 22]: 30; Ragweed plant response rating [14, 22]: 50; Ryegrass, Italian plant response rating [15, 22]: 30; Wheat plant response rating [16, 22]: 0
O=C1NCC(c2cccc(C(F)(F)F)c2F)C1C(=O)Nc1cccc(F)c1F (stereo not drawn) [Compound 591]	30	90	90	0	0	20	50	60	90	60	80	90	70	30	70	60	65	100	35	0	Kochia plant response rating (0 to 100 scale, 0 is no effect, 100 is complete control) ([1]; Preemergence, 500 g ai/ha): 60; Barnyardgrass plant response rating (0 to 100 scale, 0 is no effect, 100 is complete control) ([2]; Preemergence, 500 g ai/ha): 90; Foxtail, Giant plant response rating (0 to 100 scale, 0 is no effect, 100 is complete control) ([3]; Preemergence, 500 g ai/ha): 90; Pigweed plant response rating (0 to 100 scale, 0 is no effect, 100 is complete control) ([4]; Preemergence, 500 g ai/ha): 40; Ragweed plant response rating (0 to 100 scale, 0 is no effect, 100 is complete control) ([5]; Preemergence, 500 g ai/ha): 60; Ryegrass, Italian plant response rating (0 to 100 scale, 0 is no effect, 100 is complete control) ([6]; Preemergence, 500 g ai/ha): 60; Plant response rating, Galium [7, 24]: 40; Plant response rating, Kochia [8, 24]: 20; Plant response rating, Barnyardgrass [9, 24]: 90; Plant response rating, Blackgrass [10, 24]: 50; Plant response rating, Corn [11, 24]: 70; Plant response rating, Foxtail, Giant [12, 24]: 90; Plant response rating, Pigweed [13, 24]: 20; Plant response rating, Ragweed [14, 24]: 0; Plant response rating, Ryegrass, Italian [15, 24]: 0; Plant response rating, Wheat [16, 24]: 50
CN1CC(c2ccc(F)c(C(F)(F)F)c2)C(C(=O)Nc2ccccc2S(C)(=O)=O)C1=O (stereo not drawn) [Compound 612]	20	90	90	70	50	50	50	40	90	60	90	90	50	20	70	30	65	100	15	85	Plant response rating, Kochia [1, 25]: 20; Plant response rating, Barnyardgrass [2, 25]: 90; Plant response rating, Foxtail, Giant [3, 25]: 90; Plant response rating, Pigweed [4, 25]: 70; Plant response rating, Ragweed [5, 25]: 50; Plant response rating, Ryegrass, Italian [6, 25]: 70; Plant response rating, Galium [7, 24]: 30; Plant response rating, Kochia [8, 24]: 20; Plant response rating, Barnyardgrass [9, 24]: 70; Plant response rating, Blackgrass [10, 24]: 40; Plant response rating, Corn [11, 24]: 50; Plant response rating, Foxtail, Giant [12, 24]: 70; Plant response rating, Pigweed [13, 24]: 20; Plant response rating, Ragweed [14, 24]: 0; Plant response rating, Ryegrass, Italian [15, 24]: 20; Plant response rating, Wheat [16, 24]: 30
CN1CC(c2cccc(OC(F)F)c2)C(C(=O)Nc2ccc(F)cc2F)C1=O (stereo not drawn) [Compound 617]	70	90	90	90	30	70	60	60	90	60	80	90	50	50	50	60	90	100	10	0	Plant response rating, Kochia [1, 25]: 70; Plant response rating, Barnyardgrass [2, 25]: 90; Plant response rating, Foxtail, Giant [3, 25]: 100; Plant response rating, Pigweed [4, 25]: 90; Plant response rating, Ragweed [5, 25]: 60; Plant response rating, Ryegrass, Italian [6, 25]: 90; Plant response rating, Galium [7, 24]: 60; Plant response rating, Kochia [8, 24]: 50; Plant response rating, Barnyardgrass [9, 24]: 90; Plant response rating, Blackgrass [10, 24]: 40; Plant response rating, Corn [11, 24]: 80; Plant response rating, Foxtail, Giant [12, 24]: 90; Plant response rating, Pigweed [13, 24]: 30; Plant response rating, Ragweed [14, 24]: 20; Plant response rating, Ryegrass, Italian [15, 24]: 20; Plant response rating, Wheat [16, 24]: 50

From patent US12077503B2, “Substituted cyclic amides and their use as herbicides” (FMC CORPORATION, priority 2015, dated 2024)
